The values below come from patent US7652153B2, “Caspase inhibitors and uses thereof” (Vertex Pharmaceuticals Incorporated, priority 2004, dated 2010).

SMILES strings stand for the structures.

Experiment [1] addresses caspase-8 (Homo sapiens, UniProt Q14790). Nature of the experiment: Caspase-8 enzyme inhibition (Ki, method of Margolin et al.). The experiment is classed as biochemical. Conditions: Ac-DEVD-pNA substrate 80 μM, 37° C., pH 7.5; read-out: Ki C8. How it is done:
(§1) Compounds of this invention may be tested using the methods described below.
(§2) In Vitro Assays Enzyme Inhibition
(§3) Ki values for test compounds with caspase-1 and caspase-8 were obtained by the method of Margolin et al. (J. Biol. Chem., 272 pp. 7223-7228 (1997)). Other caspases may be assayed similarly (see, e.g., WO 99/47545). Assays were performed in 10 mM Tris (Sigma Corp, St Louis Mo.) pH 7.5, 1 mM Dithiothreitol (DTT, Research Organic INC, Cleveland, Ohio) and 0.1% CHAPS (Pierce, Rockford Ill.) at 37° C. For caspase-3, a solution of 8% glycerol was added to the assay buffer to improve enzyme stability. A 65 μL aliquot of the assay buffer and 5 μL aliquot of the appropriate dilutions of inhibitor in DMSO where pipetted into a 96 well plate, treated with 10 μL of caspase, then diluted in assay buffer (0.5-40 nM active protein by active site titration). A control containing DMSO but no compound was included for each determination. The plates were then incubated for 15 minutes at 37° C., before addition of the appropriate substrate (20 μL, final concentration 1-4×KM, final assay volume 100 μL) to initiate the reaction. Reaction rates were measured at 37° C. either by following the time dependant increase in absorbance at 405 nm (for the pNA substrates) or in fluorescence (Ex 390, Em 460) (for the AMC substrates). The rates obtained were plotted against inhibitor concentration and the data fit to the Morrison tight-binding equation for competitive inhibitors (Morrison, J. F., Biochem. Biophys. Acta, 185 pp. 269-286 (1969)). The substrates used for the individual assays were as follows:
Caspase-8 Ac-DEVD-pNA (Bachem, King of Prussia, Pa.) (final concentration in assay 80 μM).

Experiment [2] has as its target T1, caspase-1 (Homo sapiens, UniProt P29466).
T1 sequence (P29466 120-297 limits assumed): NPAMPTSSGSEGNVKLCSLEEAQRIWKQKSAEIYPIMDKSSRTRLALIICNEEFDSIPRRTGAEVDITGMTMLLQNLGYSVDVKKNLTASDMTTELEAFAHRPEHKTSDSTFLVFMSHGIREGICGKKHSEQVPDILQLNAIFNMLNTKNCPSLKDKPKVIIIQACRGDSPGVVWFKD
T1 sequence (P29466 317-404 limits assumed): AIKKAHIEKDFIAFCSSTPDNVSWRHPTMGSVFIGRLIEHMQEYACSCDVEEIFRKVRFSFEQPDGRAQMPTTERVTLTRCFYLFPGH
Nature of the experiment: Caspase-1 enzyme inhibition (Ki, method of Margolin et al.). Conditions: Suc-YVAD-pNA substrate 80 μM, 37° C., pH 7.5; read-out: Ki C1. The experiment is classed as biochemical. How it is done: as §1, §2, §3
Caspase-1 Suc-YVAD-pNA (Bachem, King of Prussia, Pa.) (final concentration in the assay 80 μM);

Sequence of caspase-8 (Q14790 217-374 limits assumed, species assumed): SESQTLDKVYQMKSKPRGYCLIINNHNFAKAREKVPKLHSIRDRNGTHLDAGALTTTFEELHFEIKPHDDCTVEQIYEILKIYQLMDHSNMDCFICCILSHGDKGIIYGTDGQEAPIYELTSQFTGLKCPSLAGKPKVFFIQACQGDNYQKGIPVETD
Sequence of caspase-8 (Q14790 385-479 limits assumed, species assumed): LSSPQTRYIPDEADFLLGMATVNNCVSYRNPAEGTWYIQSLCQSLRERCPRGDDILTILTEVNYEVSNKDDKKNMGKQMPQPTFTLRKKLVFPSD

Consider `COc1cccc(C(=O)N[C@H](C(=O)N2[C@@H]3CC[C@@H](C3)[C@H]2C(=O)NC(C=O)CC(=O)O)C(C)(C)C)c1C` (stereo in doubt) [II-55, (3S)-({2-[(2S)-(3-Methoxy-2-methyl-benzoylamino)-3,3-dimethyl-butyryl]-2-(1S,4R)-aza-bicyclo[2.2.1]heptane-(3S)-carbonyl}-amino)-4-oxo-butyric acid], for which the Ki in experiment [1] and in experiment [2] was less than 10 nM throughout.
`CC(C)(C)[C@H](NC(=O)c1ccccc1Cl)C(=O)N1[C@@H]2CC[C@@H](C2)[C@H]1C(=O)NC(C=O)CC(=O)O` (stereo in doubt) [II-56, (3S)-({2-[(2S)-(2-Chloro-benzoylamino)-3,3-dimethyl-butyryl]-2-(1S,4R)-aza-bicyclo[2.2.1]heptane-(3S)-carbonyl}-amino)-4-oxo-butyric acid]: the Ki in experiment [1] and in experiment [2] was less than 10 nM each time.
In the case of `CC(=O)Nc1ccc(C(=O)N[C@H](C(=O)N2C3CC[C@@H](C3)[C@H]2C(=O)N[C@H](C=O)CC(=O)O)C(C)(C)C)c(Cl)c1` (stereo in doubt) [II-57, (3S)-({2-[(2S)-(4-Acetylamino-2-chloro-benzoylamino)-3,3-dimethyl-butyryl]-2-(1S,4R)-aza-bicyclo[2.2.1]heptane-(3S)-carbonyl}-amino)-4-oxo-butyric acid], the inhibitory constant (Ki) in experiment [1] and in experiment [2] was less than 10 nM throughout.
In the case of `CCC(=O)Nc1ccc(C(=O)N[C@H](C(=O)N2C3CC[C@@H](C3)[C@H]2C(=O)NC(C=O)CC(=O)O)C(C)(C)C)c(Cl)c1` (stereo in doubt) [II-58, (3S)-({2-[(2S)-(2-Chloro-4-propionylamino-benzoylamino)-3,3-dimethyl-butyryl]-2-(1S,4R)-aza-bicyclo[2.2.1]heptane-(3S)-carbonyl}-amino)-4-oxo-butyric acid], the Ki in experiment [1] and in experiment [2] was less than 10 nM throughout.
On to `CC(C)C(=O)Nc1cccc(C(=O)N[C@H](C(=O)N2C3CC[C@@H](C3)[C@H]2C(=O)N[C@H](C=O)CC(=O)O)C(C)(C)C)c1Cl` (stereo in doubt) [II-59, (3S)-({2-[(2S)-(2-Chloro-3-isobutyrylamino-benzoylamino)-3,3-dimethyl-butyryl]-2-(1S,4R)-aza-bicyclo[2.2.1]heptane-(3S)-carbonyl}-amino)-4-oxo-butyric acid], for which the Ki in experiment [1] and in experiment [2] was less than 10 nM throughout.
As to `COc1cccc(C(=O)N[C@H](C(=O)N2C3CC[C@@H](C3)[C@H]2C(=O)N[C@H](C=O)CC(=O)O)C(C)(C)C)c1F` (stereo in doubt) [II-60, (3S)-({2-[(2S)-(2-Fluoro-3-methoxy-benzoylamino)-3,3-dimethyl-butyryl]-2-(1S,4R)-aza-bicyclo[2.2.1]heptane-(3S)-carbonyl}-amino)-4-oxo-butyric acid], the Ki in experiment [1] and in experiment [2] was less than 10 nM in each case.
For the compound `COc1cccc(C(=O)N[C@H](C(=O)N2C3CC[C@@H](C3)[C@H]2C(=O)N[C@H](C=O)CC(=O)O)C(C)C)c1F` (stereo in doubt) [II-61, (3S)-({2-[(2S)-(2-Fluoro-3-methoxy-benzoylamino)-3-methyl-butyryl]-2-(1S,4R)-aza-bicyclo[2.2.1]heptane-(3S)-carbonyl}-amino)-4-oxo-butyric acid], the Ki in experiment [1] and in experiment [2] was less than 10 nM each time.
As to `CC(=O)Nc1ccc(C(=O)N[C@H](C(=O)N2[C@@H]3CC[C@@H](C3)[C@H]2C(=O)N[C@H](C=O)CC(=O)O)C(C)(C)C)cc1Cl` (stereo in doubt) [II-62, (3S)-({2-[(2S)-(4-Acetylamino-3-chloro-benzoylamino)-3,3-dimethyl-butyryl]-2-(1S,4R)-aza-bicyclo[2.2.1]heptane-(3S)-carbonyl}-amino)-4-oxo-butyric acid], the Ki in experiment [1] was 10 to 20 nM; in experiment [2], less than 10 nM.
In the same order, the values of `CCC(=O)Nc1ccc(C(=O)N[C@H](C(=O)N2[C@@H]3CC[C@@H](C3)[C@H]2C(=O)N[C@H](C=O)CC(=O)O)C(C)(C)C)cc1Cl` (stereo in doubt) [II-63, (3S)-({2-[(2S)-(3-Chloro-4-propionylamino-benzoylamino)-3,3-dimethyl-butyryl]-2-(1S,4R)-aza-bicyclo[2.2.1]heptane-(3S)-carbonyl}-amino)-4-oxo-butyric acid] are 10 to 20 nM and less than 10 nM.
In the same order, the values of `CC(C)(C)[C@H](NC(=O)c1nccc2ccccc12)C(=O)N1[C@@H]2CC[C@@H](C2)[C@H]1C(=O)N[C@H](C=O)CC(=O)O` (stereo in doubt) [II-64, (3S)-({2-[(2S)-(Isoquinolin-1-ylcarbonylamino)-3,3-dimethyl-butyryl]-2-(1S,4R)-aza-bicyclo[2.2.1]heptane-(3S)-carbonyl}-amino)-4-oxo-butyric acid] are 10 to 20 nM and 10 to 20 nM.
For `CC(C)(C)[C@H](NC(=O)c1ccc(N)c(Cl)c1)C(=O)N1[C@@H]2CC[C@@H](C2)[C@H]1C(=O)N[C@H](C=O)CC(=O)O` (stereo in doubt) [II-65, (3S)-({2-[(2S)-(4-Amino-3-chloro-benzoylamino)-3,3-dimethyl-butyryl]-2-(1S,4R)-aza-bicyclo[2.2.1]heptane-(3S)-carbonyl}-amino)-4-oxo-butyric acid] the same measures were less than 10 nM and less than 10 nM.
As to `CC(C)[C@H](NC(=O)c1ccc(N)c(Cl)c1)C(=O)N1[C@@H]2CC[C@@H](C2)[C@H]1C(=O)N[C@H](C=O)CC(=O)O` (stereo in doubt) [II-66, (3S)-({2-[(2S)-(4-Amino-3-chloro-benzoylamino)-3-methyl-butyryl]-2-(1S,4R)-aza-bicyclo[2.2.1]heptane-(3S)-carbonyl}-amino)-4-oxo-butyric acid], the Ki was less than 10 nM in experiment [1] and 10 to 20 nM in experiment [2].
Turning to `COc1cccc(C(=O)N[C@H](C(=O)N2CCC[C@H]2C(=O)N[C@H](C=O)CC(=O)O)C(C)C)c1C` [II-1, (S,S,S)-(3S)-({1-[(2S)-(3-Methoxy-2-methyl-benzoylamino)-3-methyl-butyryl]-pyrrolidine-(2S)-carbonyl}-amino)-4-oxo-butyric acid], the Ki in experiment [1] and in experiment [2] was less than 10 nM in each case.
In the case of `CC(C)[C@H](NC(=O)c1ccccc1Cl)C(=O)N1CCC[C@H]1C(=O)N[C@H](C=O)CC(=O)O` [II-2, (S,S,S)-(3S)-({1-[(2S)-(2-Chloro-benzoylamino)-3-methyl-butyryl]-pyrrolidine-(2S)-carbonyl}-amino)-4-oxo-butyric acid], the Ki in experiment [1] and in experiment [2] was less than 10 nM throughout.
On to `Cc1ccccc1C(=O)N[C@H](C(=O)N1CCC[C@H]1C(=O)N[C@H](C=O)CC(=O)O)C(C)C` [II-3, (S,S,S)-(3S)-({1-[3-Methyl-(2S)-(2-methyl-benzoylamino)-butyryl]-pyrrolidine-(2S)-carbonyl}-amino)-4-oxo-butyric acid], for which the Ki in experiment [1] and in experiment [2] was less than 10 nM each time.
For `COc1ccccc1C(=O)N[C@H](C(=O)N1CCC[C@H]1C(=O)N[C@H](C=O)CC(=O)O)C(C)C` [II-4, (S,S,S)-(3S)-({1-[(2S)-(2-methoxy-benzoylamino)-3-methyl-butyryl]-pyrrolidine-(2S)-carbonyl}-amino)-4-oxo-butyric acid], the inhibitory constant (Ki) was 10 to 20 nM in experiment [1] and less than 10 nM in experiment [2].
Take `CC(C)[C@H](NC(=O)c1ccccc1OC(F)(F)F)C(=O)N1CCC[C@H]1C(=O)N[C@H](C=O)CC(=O)O` [II-5, (S,S,S)-(3S)-({1-[3-Methyl-(2S)-(2-trifluoromethoxy-benzoylamino)-butyryl]-pyrrolidine-(2S)-carbonyl}-amino)-4-oxo-butyric acid]: the Ki in experiment [1] was 10 to 20 nM; in experiment [2] it was less than 10 nM.
Take `Cc1c(O)cccc1C(=O)N[C@H](C(=O)N1CCC[C@H]1C(=O)N[C@H](C=O)CC(=O)O)C(C)C` [II-6, (S,S,S)-(3S)-({1-[(2S)-(3-Hydroxy-2-methyl-benzoylamino)-3-methyl-butyryl]-pyrrolidine-(2S)-carbonyl}-amino)-4-oxo-butyric acid]: the Ki in experiment [1] and in experiment [2] was less than 10 nM in each case.
As for `Cc1c(N)cccc1C(=O)N[C@H](C(=O)N1CCC[C@H]1C(=O)N[C@H](C=O)CC(=O)O)C(C)C` [II-7, (S,S,S)-(3S)-({1-[(2S)-(3-Amino-2-methyl-benzoylamino)-3-methyl-butyryl]-pyrrolidine-(2S)-carbonyl}-amino)-4-oxo-butyric acid], the Ki is 10 to 20 nM in experiment [1] and less than 10 nM in experiment [2].

Broadly, the Ki is the dissociation constant of the complex between target and ligand, obtained from inhibition or displacement.
